Source: article PMC6044894 (ACS Omega, 2017)
Numbered stars: 1 amine (or outer) side, 2 acyl side, 3 side chain; on linkers, the order of the positions; unused ones are H or OH. Bridge positions count the residues as written; N and C are the ends. Peptide text beside a SMILES is read from it. I, II: the chains in the order shown. * marks the point of attachment. Suberoyl = O=C(CCCCCCC(=O)[*:2])[*:1]; Octanoyl = CCCCCCCC(=O)*

Tests used:
[1] = biological target: T1, Y4R (Homo sapiens, UniProt P50391); test: Aequorin calcium mobilization assay on CHO-hY4-Gqi5-mtAEQ cells; assay type: cell-based; settings: for aequorin assay intrinsic activity α: relative to 1 μM hPP (α = 1.0)
T1 sequence (P50391 whole entry): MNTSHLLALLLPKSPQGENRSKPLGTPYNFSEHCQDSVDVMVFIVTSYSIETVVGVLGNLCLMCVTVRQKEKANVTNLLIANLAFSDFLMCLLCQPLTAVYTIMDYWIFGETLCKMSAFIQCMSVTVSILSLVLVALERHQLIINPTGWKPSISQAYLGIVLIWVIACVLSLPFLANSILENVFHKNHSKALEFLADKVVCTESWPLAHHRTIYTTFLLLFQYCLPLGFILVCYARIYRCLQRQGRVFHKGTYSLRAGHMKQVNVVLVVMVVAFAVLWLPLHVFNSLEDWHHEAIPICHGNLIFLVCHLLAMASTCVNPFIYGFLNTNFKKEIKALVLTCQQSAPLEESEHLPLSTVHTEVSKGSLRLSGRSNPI

[2] = biological target: T2, Y1R (Homo sapiens, UniProt P25929); test: Radioligand competition binding assay at Y1R with 46 using MCF-7-hY1 cells
T2 sequence (P25929 1-384): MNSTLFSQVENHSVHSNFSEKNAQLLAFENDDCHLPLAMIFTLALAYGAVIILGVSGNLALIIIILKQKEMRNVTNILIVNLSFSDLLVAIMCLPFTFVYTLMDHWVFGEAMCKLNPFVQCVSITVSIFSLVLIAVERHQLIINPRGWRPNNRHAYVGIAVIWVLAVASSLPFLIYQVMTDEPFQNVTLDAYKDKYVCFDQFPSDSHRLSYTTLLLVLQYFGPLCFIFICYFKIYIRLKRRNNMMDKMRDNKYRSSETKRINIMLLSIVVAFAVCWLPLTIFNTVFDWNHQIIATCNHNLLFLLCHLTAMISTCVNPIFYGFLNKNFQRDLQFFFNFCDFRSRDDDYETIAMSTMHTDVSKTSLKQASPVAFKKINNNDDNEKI

[3] = biological target: T3, Y2R (Homo sapiens, UniProt P49146); assay type: binding
T3 sequence (P49146 1-381): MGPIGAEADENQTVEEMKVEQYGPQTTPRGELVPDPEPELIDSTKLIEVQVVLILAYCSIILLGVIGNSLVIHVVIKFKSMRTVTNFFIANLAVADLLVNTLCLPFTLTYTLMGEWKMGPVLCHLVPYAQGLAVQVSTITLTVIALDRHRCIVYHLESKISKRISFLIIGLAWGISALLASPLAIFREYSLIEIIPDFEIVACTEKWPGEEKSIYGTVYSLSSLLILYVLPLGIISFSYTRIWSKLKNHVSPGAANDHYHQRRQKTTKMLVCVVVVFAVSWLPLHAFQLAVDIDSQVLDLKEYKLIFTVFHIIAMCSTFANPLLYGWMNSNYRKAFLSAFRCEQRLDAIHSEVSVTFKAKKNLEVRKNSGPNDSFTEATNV

[4] = biological target: T1, Y4R; test: biochemical; assay type: binding
[5] = biological target: T4, Y5R (Homo sapiens, UniProt Q15761); assay type: binding
T4 sequence (Q15761 1-445): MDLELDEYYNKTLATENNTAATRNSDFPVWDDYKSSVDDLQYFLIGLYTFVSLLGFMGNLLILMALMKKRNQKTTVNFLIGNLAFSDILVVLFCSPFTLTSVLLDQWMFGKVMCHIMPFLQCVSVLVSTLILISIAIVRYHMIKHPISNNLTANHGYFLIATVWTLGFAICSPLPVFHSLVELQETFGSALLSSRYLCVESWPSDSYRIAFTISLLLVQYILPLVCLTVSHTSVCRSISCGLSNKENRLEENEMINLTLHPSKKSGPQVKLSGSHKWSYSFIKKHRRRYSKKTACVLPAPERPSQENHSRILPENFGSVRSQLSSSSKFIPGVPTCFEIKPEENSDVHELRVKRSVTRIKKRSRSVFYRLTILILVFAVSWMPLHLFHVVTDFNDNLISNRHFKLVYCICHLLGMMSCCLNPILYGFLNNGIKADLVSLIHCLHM

[6] = biological target: T1, Y4R; test: β-Arrestin 1 recruitment assay on HEK293T-ARRB1-Y4R cells; assay type: cell-based; settings: for β-arrestin 1 assay intrinsic activity α: relative to 1 μM hPP (α = 1.0)
[7] = biological target: T1, Y4R; test: β-Arrestin 2 recruitment assay on HEK293T-ARRB2-Y4R cells; assay type: cell-based; settings: for β-arrestin 2 assay intrinsic activity α: relative to 1 μM hPP (α = 1.0)

Row | Compound | aequorin assay intrinsic activity α [1] | Ki [2] [µM] | Ki [3] [µM] | Ki [4] [µM] | increase in Y4R affinity compared to parent compound 3 ([4]; ratio of Ki values) | Ki [5] [µM] | EC50 [1] [µM] | EC50 [6] [µM] | β-arrestin 1 assay intrinsic activity α [6] | EC50 [7] [µM] | β-arrestin 2 assay intrinsic activity α [7]
1 | CC(C)C[C@H](NC(=O)[C@H](CCCNC(=N)N)NC(=O)[C@H](Cc1ccc(O)cc1)NC(=O)CCCCCCC(=O)N[C@@H](Cc1ccc(O)cc1)C(=O)N[C@@H](CCCNC(=N)N)C(=O)N[C@@H](CC(C)C)C(=O)N[C@@H](CCCNC(=N)N)C(=O)N[C@@H](Cc1ccc(O)cc1)C(N)=O)C(=O)N[C@@H](CCCNC(=N)N)C(=O)N[C@@H](Cc1ccc(O)cc1)C(N)=O [Compound 2, octanedioyl-bis(Tyr-Arg-Leu-Arg-Tyr-amide), reference compound] (I: YRLRY-NH2 / II: YRLRY-NH2; linker I:N-II:N via Suberoyl) | 0.73 |  |  |  |  |  |  |  |  |  | 
2 | CCCCCCCC(=O)N[C@@H](Cc1ccc(O)cc1)C(=O)N[C@@H](CCCNC(=N)N)C(=O)N[C@@H](CC(C)C)C(=O)N[C@@H](CCCNC(=N)N)C(=O)N[C@@H](Cc1ccc(O)cc1)C(N)=O [Compound 33, Octanoyl-Tyr-Arg-Leu-Arg-Tyr-amide Bis(hydrotrifluoroacetate)] (Octanoyl-YRLRY-NH2) | 0.44 | 0.589 ± 0.12 | > 5 | 0.0569 ± 0.0053 | almost six | 3.44 ± 0.21 | 2.05 ± 0.084 | 2.2 ± 0.13 | 0.56 | 1.79 ± 1.07 | 0.61
3 | CC(=O)N[C@@H](CCCNC(=N)N)C(=O)N[C@@H](Cc1ccc(O)cc1)C(=O)N[C@@H](CCCNC(=N)N)C(=O)N[C@@H](CC(C)C)C(=O)N[C@@H](CCCNC(=N)N)C(=O)N[C@@H](Cc1ccc(O)cc1)C(N)=O [Compound 36, Ac-Arg-Tyr-Arg-Leu-Arg-Tyr-amide Tris(hydrotrifluoroacetate)] | 0.78 | 1.18 ± 0.38 | > 5 |  |  | > 5 | 0.303 ± 0.068 | 0.187 ± 0.04 | 0.51 | 0.14 ± 0.045 | 0.54
4 | Ac-YRLRY-NH2 [Compound 3, Ac-Tyr-Arg-Leu-Arg-Tyr-amide, reference compound] |  | > 5 | > 5 |  |  | > 5 |  |  |  |  | 
